In US7186699B2, “Method for treating cancer by vector-mediated delivery of one or more anti-angiogenic or pro-apoptotic genes” (Cell Genesys, Inc., priority 2003, dated 2007):
Residue numbers refer to the chain shown, from its start. Where a SMILES comes first, the peptide text is derived from it. The star is where a group is joined. Cbz = O=C(OCc1ccccc1)*; CH2F = FC*

Columns and labels:
[1] = test system: HT29 colorectal tumor cells; test: Chemosensitization of HT29 colon cancer cells to TRAIL; format: cell-based, human
Experimental: FIGS. 17A–C show augmentation of sTRAIL-induced HT29 colon cancer cytotoxicity by chemotherapy sensitization.
(§1) Tumor cells are plated at 1e4 cells per well in 96-well plates and incubated overnight at 37 C after which time the cells are left untreated or treated with the indicated sub-toxic doses of chemotherapeutic agents. After 24 hr, the cells are left untreated, or treated with sub-toxic doses of recombinant human TRAIL or AAV-produced TRAIL for an additional 24, 48 or 72 hr. Cell viability is evaluated using a tetrazolium-salt (WST-8) based proliferation assay (Cell Counting Kit-8, Dojindo Laboratories, Japan) according to the manufacturer's recommendations. % Cytotoxicity/Growth Inhibition was defined as [1-(OD treated−background)/(OD untreated−background)×100].
(§2) The specificity of TRAIL-induced cell death was tested in a variety of tumor and normal cells. […] The combinatorial cytotoxic effects of TRAIL and chemotherapy were tested in a panel of tumor cells.

[2] = test system: colorectal tumor cell lines (HT29, HCT-116, Colo-205); test: Combination of sTRAIL and COX inhibitors in colorectal tumor cell lines; format: cell-based, human; settings: combined with high doses of SC-560 and Celebrex
Experimental: as §2

human tumor cell lines = test: Sensitivity of tumor cell lines to TRAIL, WST-8 cytotoxicity assay; format: cell-based; settings: human tumor cell lines from diverse tissues; 24 hr; FIG. 14
Experimental: Briefly, 1e4 tumor cells (ATCC), or normal primary cells (BioWhittaker), are seeded in one well of a 96-well titer plate and incubated overnight at 37° C. Cells are then treated with the test or control agents for 24, 48 or 72 hr. Following treatment, cell viability is evaluated using a tetrazolium-salt (WST-8) based proliferation assay (Cell Counting Kit-8, Dojindo Laboratories, Japan) according to the manufacturer's recommendations. % Cytotoxicity/Growth inhibition is defined as [1-(OD treated−background)/(OD untreated−background)×100].
as §2

Colo-205 cells [3] = test: Colo-205 growth inhibition/viability, WST-8 tetrazolium assay; format: cell-based, human; settings: 24, 48 and 72 hr treatment, FIG. 10B/10C
Experimental: Cell proliferation was evaluated using a WST-8-based tetrazolium salt viability assay using the formulas: % Viability=[OD (sTRAIL) treated−background]/[OD (GFP) untreated−background]×100 and % Growth Inhibition=[1-(OD treated−background)/OD untreated−background)]×100.

Caspase 8 = Caspase 8 protease activity in Colo-205 cell lysates (IETD-pNA); format: cell-based, human
Experimental: (§3) In certain assays, cells are pre-treated with 20 uM of the pan-caspase inhibitor, ZVAD-fmk (RnD Systems), 1 hr prior to stimulation with TRAIL or control agents.

Caspase 3 = Caspase 3 protease activity in Colo-205 cell lysates (DEVD-pNA); format: cell-based, human
Experimental: as §3

[4] = test system: A549 lung carcinoma, U87MG glioma, MCF7 breast carcinoma, PC-3 prostate carcinoma; test: Chemosensitization of tumor cells to TRAIL; format: cell-based, human; settings: A549+cisplatin, U87MG+etoposide, MCF-7+doxorubicin, PC-3+doxorubicin; 24 hr pre-treatment with sub-toxic doses, then 24 hr TRAIL
Experimental: FIGS. 16A–D show augmentation of sTRAIL-induced tumor cell cytotoxicity by chemotherapy sensitization 1 e4 tumor cells were pretreated with genotoxic agents for 24 hr to sensitize, then subsequently treated with sTRAIL for 24 hr. Viability was measured by WST-8 tetrazolium salt assay after 24 hr sTRAIL treatment and % Growth inhibition=[1-(OD treated−background)/(OD untreated−background)×100].
as §1, §2

Colo-205 cells [5] = test: DNA fragmentation (apoptosis) ELISA in Colo-205 cells; format: cell-based, human
From the text: Apoptosis, e.g. […]
DNA fragmentation is quantitated by a photometric enzyme-immunoassay (Cell Death Detection ELISA Assay, Roche) for measuring cytoplasmic histone-associated nucleosomes according to the manufacturer's protocols. % Apoptosis is defined as relative increase in DNA fragmentation in treated vs. control cells calculated by [O.D. Treated−background]/[Maximal O.D.−Background].

[6] = test system: VEGF induced vessel sprouting; test: Chick chorioallantoic membrane (CAM) assay; format: in vivo; settings: 25 ng VEGF with 0.1, 1 and 10 ng protein from conditioned media; 72 hr
Experimental: FIG. 4 illustrates the results of experiments that show PF4 and PF4(DLR) reduce VEGF stimulated angiogenesis in the chick chorioallantoic membrane (CAM) assay. Hyrdocortisone-containing filter disks were soaked with 25 ng of VEGF together with 0.1 ng, 1 ng and 10 ng of PF-4 or PF-4(DLR) derived from conditioned media. AAV-null, 293 cell supernatant and an internal PF-4 protein standard, PF4-Blast, were included in the assay as separate controls. Filter disks were aseptically placed on top of the chorioallantoic membranes of 11 day chick embryos. 72 hours after incubation the CAMs were surgically removed, fixed and the number of vessel sprouts determined by stereomicroscopy.
Hydrocortisone-containing filter discs are soaked with 25 ng Vascular Endothelium Growth Factor (VEGF) (R&D Systems, Minneapolis, Minn.) together with the indicated doses of conditioned media from control or vector transduced cells, and aseptically placed on top of the chorioallantoic membranes of 11 day old chick embryos. After 72 hr incubation, the CAMs are surgically removed, fixed and the discs are analyzed for VEGF-induced angiogenesis by stereomicroscopy. The mean number (+/−SEM) of branch points occurring in the new blood vessel sprouts beneath the applied filter disc from the treated CAMs is enumerated from multiple (n=8–10) samples. […]

[7] = Colo-205 cells, 4 hr incubation
[8] = Colo-205 cells pre-incubated with 20 uM inhibitor

TRAIL
Cytotoxic effect combined with chemotherapy ([1]; combined with sub-toxic doses of doxorubicin, cisplatin, or camptothecin): synergistic cytotoxic effect
Cell death with TRAIL alone ([1]; sub-optimal doses of TRAIL): refractory to cell death
Cytotoxic activity combined with cyclo-oxygenase-2 inhibitors [2]: synergistic cytotoxic activity

recombinant human TRAIL: recombinant human TRAIL purchased from a commercial vendor (RnD Systems)
Cytotoxicity in tumor cell lines (human tumor cell lines): cytotoxicity was observed in a wide spectrum of human tumor cell lines
50% effective dose of Colo-205 growth inhibition (Colo-205 cells [3]): approximately 0.5 ng/ml
Induction of caspase 8 protease activity (Caspase 8; [7]): Dose-dependent induction
Induction of caspase 3 protease activity (Caspase 3; [7]): Dose-dependent induction
Cytotoxic effect combined with chemotherapy [4]: augmented cytotoxic effect
50% effective dose (ED50) for induction of apoptosis (DNA fragmentation) (Colo-205 cells [5]; Colo-205 cells, 6 hr incubation (sTRAIL 6, 16 and 24 hr), FIG. 11): approximately 1 ng/ml

COC(=O)C[C@H](NC(=O)[C@H](C)NC(=O)[C@@H](NC(=O)OCc1ccccc1)C(C)C)C(=O)CF [ZVAD-fmk] (Cbz-Val-Ala-Asp(OMe)-CH2F)
Effect on TRAIL-induced caspase 8 protease activity (Caspase 8; [8]): blocking of TRAIL-induced caspase protease activity
Effect on TRAIL-induced caspase 3 protease activity (Caspase 3; [8]): blocking of TRAIL-induced caspase protease activity
Effect on sTRAIL induced DNA fragmentation (Colo-205 cells [5]; Colo-205 cells pre-incubated with increasing amounts of inhibitor, 6 hr after sTRAIL treatment): prevents sTRAIL induced DNA fragmentation in a dose-dependent manner

B1: PF-4: platelet factor-4 from conditioned media of transfected 293 cells (SEQ ID NO:7) (protein)
chain: MSSAAGFCASRPGLLFLGLLLLPLVVAFASAEAEEDGDLQCLCVKTTSQVRPRHITSLEVIKAGPHCPTAQLIATLKNGRKICLDLQAPLYKKIIKKLLES
modifications: platelet factor-4
VEGF induced vessel sprouting [6]: blockage of VEGF induced vessel sprouting

B2: PF-4(DLR): platelet factor-4 with the DLR mutation (SEQ ID NO:9) from conditioned media (protein)
chain: B1 chain with Q87R
modifications: platelet factor-4 with DLR mutation
VEGF induced vessel sprouting [6]: blockage of VEGF induced vessel sprouting
